Results: ChEMBL document CHEMBL6109109, “Fatty acid binding protein 5 inhibitors as novel anticancer agents against metastatic castration-resistant prostate cancer” (Bioorg Med Chem, 2025)

Assays:
PC-3 [1] = experiment: Induction of apoptosis in human PC-3 cells assessed as late apoptotic cells at 15 uM measured after 72 hrs by Annexin V-FITC/propidium iodide staining based FACS analysis (reference value: 1.73%); format: functional
[2] = Cytotoxicity against human WI-38 cells assessed as reduction in cell viability measured after 72 hrs by MTT assay; format: toxicity, cell-based
PC-3 [3] = experiment: Induction of apoptosis in human PC-3 cells assessed as early apoptotic cells at 15 uM measured after 72 hrs by Annexin V-FITC/propidium iodide staining based FACS analysis (reference value: 0.54%); format: functional
[4] = Cytotoxicity against mouse RCap cells assessed as reduction in cell viability measured after 72 hrs by MTT assay; format: functional, cell-based
PC-3 [5] = experiment: Induction of apoptosis in human PC-3 cells assessed as viable cells at 15 uM measured after 72 hrs by Annexin V-FITC/propidium iodide staining based FACS analysis (reference value: 97.62%); format: functional; settings: read-out: Activity
PC-3 [6] = experiment: Cytotoxicity against human PC-3 cells assessed as reduction in cell viability measured after 72 hrs by MTT assay; format: functional, cell-based; settings: PC-3, 72 h
PC-3 [7] = experiment: Induction of apoptosis in human PC-3 cells assessed as necrotic cells at 15 uM measured after 72 hrs by Annexin V-FITC/propidium iodide staining based FACS analysis (reference value: 0.11%); format: functional
PC-3 [8] = experiment: Cytotoxicity against human PC-3 cells assessed as cell growth inhibition at 0.00001 uM measured after 72 hrs by MTT assay relative to control; format: functional; settings: dose 1e-05 µM, read-out: GI
[9] = Cytotoxicity against mouse RCaP cells assessed as cell growth inhibition at 0.0001 uM measured after 72 hrs by MTT assay relative to control; format: functional; settings: read-out: GI
PC-3 [10] = experiment: Cytotoxicity against human PC-3 cells assessed as cell growth inhibition at 0.1 uM measured after 72 hrs by MTT assay relative to control; format: functional; settings: read-out: GI
[11] = Cytotoxicity against mouse RCaP cells assessed as cell growth inhibition at 10 uM measured after 72 hrs by MTT assay relative to control; format: functional; settings: read-out: GI
[12] = Cytotoxicity against mouse RCaP cells assessed as cell growth inhibition at 1 uM measured after 72 hrs by MTT assay relative to control; format: functional; settings: read-out: GI
PC-3 [13] = experiment: Cytotoxicity against human PC-3 cells assessed as cell growth inhibition at 0.001 uM measured after 72 hrs by MTT assay relative to control; format: functional; settings: read-out: GI
[14] = Cytotoxicity against mouse RCaP cells assessed as cell growth inhibition at 0.01 uM measured after 72 hrs by MTT assay relative to control; format: functional; settings: read-out: GI
PC-3 [15] = experiment: Cytotoxicity against human PC-3 cells assessed as cell growth inhibition at 10 uM measured after 72 hrs by MTT assay relative to control; format: functional; settings: read-out: GI
[16] = Cytotoxicity against mouse RCaP cells assessed as cell growth inhibition at 0.001 uM measured after 72 hrs by MTT assay relative to control; format: functional; settings: read-out: GI
PC-3 [17] = experiment: Cytotoxicity against human PC-3 cells assessed as cell growth inhibition at 0.0001 uM measured after 72 hrs by MTT assay relative to control; format: functional; settings: read-out: GI
PC-3 [18] = experiment: Cytotoxicity against human PC-3 cells assessed as cell growth inhibition at 0.01 uM measured after 72 hrs by MTT assay relative to control; format: functional; settings: read-out: GI
PC-3 [19] = experiment: Cytotoxicity against human PC-3 cells assessed as cell growth inhibition at 1 uM measured after 72 hrs by MTT assay relative to control; format: functional; settings: read-out: GI
[20] = Cytotoxicity against mouse RCaP cells assessed as cell growth inhibition at 0.00001 uM measured after 72 hrs by MTT assay relative to control; format: functional; settings: dose 1e-05 µM, read-out: GI
[21] = Cytotoxicity against mouse RCaP cells assessed as cell growth inhibition at 0.1 uM measured after 72 hrs by MTT assay relative to control; format: functional; settings: read-out: GI
[22] = Binding affinity to FABP5 (unknown origin); design: species or system Homo sapiens

| Structure (SMILES) | IC50 at 72 h [2] | IC50 [4] | IC50 (PC-3 [6]) | Ki [22] | also measured |
| --- | --- | --- | --- | --- | --- |
| O=C(O)[C@H]1[C@@H](c2ccccc2)[C@H](C(=O)Oc2cccc3ccccc23)[C@@H]1c1ccccc1 | 83.3 µM | 33.4 µM | 15.9 µM | – | Activity (PC-3 [1]): 3.13%; Activity (PC-3 [3]): 1.22%; viability at 15 µM (PC-3 [5]): 95.4%; Activity (PC-3 [7]): 0.21% |
| CC[C@@]1(O)C(=O)OCc2c1cc1n(c2=O)Cc2cc3c(CN(C)C)c(O)ccc3nc2-1 [TOPOTECAN] | – | – | – | – | inhibition of growth at 10 pM (PC-3 [8]): -4.4%; inhibition of growth at 0.0001 µM [9]: -3.2%; inhibition of growth at 0.1 µM (PC-3 [10]): 55.9%; inhibition of growth at 10 µM [11]: 89.6%; inhibition of growth at 1 µM [12]: 93.6%; inhibition of growth at 0.001 µM (PC-3 [13]): 1.13%; inhibition of growth at 0.01 µM [14]: 9.17%; inhibition of growth at 10 µM (PC-3 [15]): 69.2%; inhibition of growth at 0.001 µM [16]: 0.1%; inhibition of growth at 0.0001 µM (PC-3 [17]): -2.77%; inhibition of growth at 0.01 µM (PC-3 [18]): 20.1%; inhibition of growth at 1 µM (PC-3 [19]): 67.1%; inhibition of growth at 10 pM [20]: -1.57%; inhibition of growth at 0.1 µM [21]: 66% |
| COc1ccccc1[C@H]1[C@H](C(=O)O)[C@H](c2ccccc2OC)[C@H]1C(=O)Oc1cc(-c2ccc3c(c2)OCO3)ccc1-c1cncnc1 | 66.4 µM | 20.5 µM | 10.6 µM | 0.64 µM | – |
| C#Cc1ccc(-c2ccc(C#N)cc2)cc1OC(=O)[C@H]1[C@@H](c2ccccc2OC)[C@H](C(=O)O)[C@@H]1c1ccccc1OC | > 200 µM | 17.4 µM | 8.89 µM | 1.02 µM | – |
| O=C1CCc2cc(-c3cccc(OC(=O)[C@H]4[C@@H](c5ccccc5)[C@@H](C(=O)O)[C@@H]4c4ccccc4)c3)ccc2N1 | 77 µM | 15.6 µM | 13.1 µM | 7.59 µM | – |
| N#CCc1ccc(-c2ccccc2)cc1OC(=O)[C@H]1[C@@H](c2ccccc2)[C@@H](C(=O)O)[C@@H]1c1ccccc1 | 55.2 µM | 30.1 µM | 12.3 µM | 2.37 µM | – |
| COc1ccccc1[C@H]1[C@H](C(=O)O)[C@H](c2ccccc2OC)[C@H]1C(=O)Oc1cc(-c2ccc(C#N)cc2)ccc1-c1ccccc1 | > 100 µM | 14.5 µM | 4.82 µM | 0.62 µM | – |
| COc1ccccc1[C@H]1[C@H](C(=O)O)[C@H](c2ccccc2OC)[C@H]1C(=O)Oc1cc(-c2ccc3c(c2)OCO3)ccc1CC#N | 29.8 µM | 20.7 µM | 12.5 µM | 0.58 µM | – |
| COc1ccccc1[C@H]1[C@H](C(=O)O)[C@H](c2ccccc2OC)[C@@H]1C(=O)Oc1cccc(-c2ccc(F)cc2)c1 | 57.5 µM | 19 µM | 14.6 µM | 1.77 µM | – |
